Columns and labels:
[1] = π-A isotherms of VLC-PUFA in DSPC lipid monolayers (Langmuir trough); format: physicochemical
Method: Pressure-area (π-A) isotherms were collected using a Langmuir trough (KSV, Helsinki, Finland). PBS was used as the subphase for all isotherms. Stock solutions of pure VLC-PUFA, pure DSPC, and DSPC containing 0.1 mol %, 1 mol %, or 10 mol % VLC-PUFA were spread at the air/water interface and allowed to equilibrate for 15 minutes prior to compression to allow for solvent evaporation. The monolayers were compressed at a rate of 2 mm/min at 22±1° C. and repeated in triplicate. The averaged isotherms were smoothed using a 100-point rolling average. The MMA of mixture of VLC-PUFA in DSPC layers was calculated by the formula: MMADSPC+VLC-PUFA=MMADSPCXDSPC+MMAVLC-PUFAXVLC-PUFA, where the X is mol fraction of DSPC and VLC-PUFA in membrane.
After developing an efficient synthetic route to producing VLC-PUFAs, their previously unexplored biophysical properties were studied, including their impact on membrane packing and compressibility as well their influence on membrane dynamics, particularly lipid flip-flop. […] The changes imparted by VLC-PUFAs on lipid packing and the compression moduli of model membranes were evaluated from π-A isotherms of 32:6 n-3 in 1,2-distearoyl-sn-3-glycero-phosphocholine (DSPC) lipid monolayers (FIG. 2A). […]

[2] = DSPC flip-flop kinetics by sum-frequency vibrational spectroscopy; format: physicochemical; conditions: 0.1 mol % VLC-PUFA in DSPC vs pure DSPC, about 46° C.
Method: Planar supported lipid bilayers (PSLBs) used in this study were prepared using the Langmuir-Blodgett/Langmuir-Schaefer (LB/LS) method, the details of which are presented elsewhere (Liu and Conboy (2009) Vib. Spectrosc. 50: 106-115). Briefly, the cleaned SiO2 prisms were submerged in PBS. Afterwards, 0.1 mol % VLC-PUFA in DSPCd70 was spread over the air/water interface and allowed to thermally equilibrate for 15 minutes. Afterwards, the monolayer was compressed to 30 mN/m at a rate of 4 mm/min, and the surface pressure was allowed to stabilize for another 5 minutes. The prism was then withdrawn at a rate of 3 mm/min to deposit the LB layer. The subphase was removed, and the trough was cleaned using methanol, isopropanol, and water. […]
Following bilayer assembly, the flow-cell was flushed with PBS in D2O to eliminate any spectral interference from the 0-H bands from water. […] The flip-flop rates of DSPC were determined from the decay of methyl symmetric stretch mode (CH3 vs) for an asymmetrically prepared VLC-PUFA:DSPC membrane in which on leaflet contained dueterated DSPCd70 and DSPC. As DSPC lipid exchange between leaflets, the intensity of the CH3 vs decreases over time due to flip-flop and the rate of exchange is determined by fitting the data to ICH3(t)=Imin+Imaxe^−4kt, the results of which are presented in FIG. 2B. The half-lives of flip-flop were calculated using […]

[3] = Single dose gavage bioavailability, GC-MS of serum and tissues; format: in vivo, WT mice (C57BL/6J); conditions: single oral gavage dose of 6 mg, mice
Method: WT mice (C57BL/6J) mice have been used in this study for single dose gavage, repeated dose gavage and optomotry experiments. VLC-PUFA liposomes have been prepared using liposome kit (0.05%) with an addition of alpha-tocopherol (VE) (0.025%) to prevent oxidation. Three month old WT mice were gavage fed with VLC-PUFA liposomes. A dose of 6 mg/mice/day was used, half the dosage used for DHA by previous studies (Jiang, et al. (2009) The Journal of Nutritional Biochemistry 20: 735-741; Hacioglui, et al. (2007) Neurobiology of Learning and Memory 87: 159-165). The mice were gavage fed and sacrificed at time intervals (n=4/time point) of 2, 4, 8, and 24 hr to harvest the blood and other tissues. Eyes were dissected under the microscope to separate retina from RPE. One pair of retina/mouse have been used for lipid extraction as described in the procedure elsewhere. Blood was centrifuged for 5 min at 7500 rpm to separate serum from RBC. Serum, RBC, liver, retina and RPE have been used for lipid extractions and GC-MS analysis.
(§1) Serum, RBCs, orbital adipose tissue, and retina punches, were extracted using the procedure previously adopted (Liu, et al. (2013) J. Chromatogr. A 1307: 191-200). The samples and internal standards (50 μg of tridecanoic acid and 1.15 μg of hentriacontanoic acid) were added in 2 ml stainless steel vials and then homogenized with 0.7 ml silica beads and 1 ml hexane-isopropanol (3:2 v:v) by a Mini Bead Beater-16 (BioSpec Products Inc., Bartlesville, Okla., USA) and a Sonic Dismembrator Model 100 (Fisher Scientific, Pittsburgh, Pa., USA). The homogenized samples were bath sonicated for 5 min in an ice water bath. After centrifugation at 10,000 rpm for 5 min, the extracted solution supernatant was transferred to a clean vial and then dried under a stream of nitrogen. The dried film was dissolved in 200 μl hexane, and 2 ml of 4% HCl in methanol was added. The tubes were flushed with argon and incubated at 80° C. for 4 hr to form FAMEs (Liu, et al. (2013) J. Chromatogr. A 1307: 191-200) and then allowed to cool. The FAME mixture was extracted three times with 1 ml distilled water and 2 ml hexane. The hexane layers were combined and dried under nitrogen gas.
(§2) Silica gel, glass-encased, solid-phase extraction cartridges were subsequently used to clean the FAME extracts. The cartridge was activated with 6 ml of hexane before loading samples. The crude FAME extract was dissolved in 200 μl of hexane and loaded onto the activated cartridge. The cartridge was washed with 6 ml hexane, and the eluate was discarded. FAMEs were eluted from the cartridge with 5 ml hexane:ether (4:1), and the eluate was evaporated under nitrogen gas. The dry film was dissolved in 200 μl of hexane and centrifuged for 3 min at 14,000 rpm to remove particles prior to GC-MS analysis. 1 μl of sample was injected into the GC-MS instrument for LC-PUFAs analysis. For VLC-PUFAs analysis, the sample was dried with nitrogen again and re-dissolved in 20 μl of n-nonane, and 5 μl samples were injected into the GC-MS instrument.
(§3) The Thermo Trace GC-DSQ II system (ThermoFisher Scientific, Waltham, Mass., USA) consists of an automatic sample injector (AS 3000), gas chromatograph (GC), single quadrupole mass detector, and an analytical workstation. The chromatographic separation was carried out with an Rxi-5MS coated 5% diphenyl/95% dimethyl polysiloxane capillary column (30 m×0.25 mm i.d, 0.25 μm film thickness) (Restek, Bellefonte, Pa., USA). Two methods (A and B) were used for detection and quantitation of LC-PUFAs and VLC-PUFAs, respectively as previously published (Liu, et al. (2013) J. Chromatogr. A 1307: 191-200). Bovine retina VLC-PUFAs were extracted and employed as VLC-PUFA standards to establish retention times because commercial standards are not available, and identification of each VLC-PUFA in retinal samples was achieved as described in prior work (Liu, et al. (2010) J. Lipid Res. 51: 3217-3229).

[4] = Repeated dose gavage for 15 days, GC-MS of serum and tissues; format: in vivo, WT mice (C57BL/6J); conditions: gavage 15 days
Method: Repeated dose gavage. VLC-PUFA liposomes were gavaged to three month old WT mice for 15 days. The mice were divided into three groups (n=4/group), Group 1 was fed with liposomes prepared with PC and alpha-tocopherol, Group 2 was fed with liposomes prepared with PC, VE, and 1 mg VLC-PUFAs and Group 3 was fed with liposomes with PC, VE and 2 mg VLC-PUFAs. Mice were sacrificed at the end of the experiment and organs were harvested, extracted for lipids and analyzed by GC-MS using the procedure mentioned elsewhere.
as §1, §2, §3

WT mice (C57BL/6J) = experiment: Optomotry/Visual behavior test after repeated dose gavage; format: in vivo; conditions: 2 mg/day for 15 days by gavage, compared to controls
Method: Optomotry/Visual behavior test. Repeated dose gavage fed mice were tested for visual behavior to observe the effect of VLC-PUFA on vision. Since the optomotry tests could be manipulative, all the analysts were double blinded. 3 month-old mice were employed to test spatial visual acuity using the OptoMotry system (Cerebral Mechanics, Lethbridg, AB, Canada). Briefly, individual mice were placed on a platform centered in a quad-square formed by four inward facing computer screens, and their movements were monitored by an overhead video camera. Photopic measurements were conducted under illuminance of around 165 lux. […] During the detection of spatial frequency threshold, the rotation speed and contrast were kept at 12°/s, and 100%, respectively, while the frequency was kept at 0.19 cycle/degree in the examination of contrast sensitivity. All experiments had concurrent control mice fed with placebo chow.

[5] = 1 and 2 mg/day groups vs control mice (undetectable)
[6] = both 1 and 2 mg/day groups vs 0 mg/day controls, mice

CC/C=C\C/C=C\C/C=C\C/C=C\C/C=C\C/C=C\CCCCCCCCCCCCC(=O)O [32:6 n-3, (14Z,17Z,20Z,23Z,26Z,29Z)-dotriaconta-14,17,20,23,26,29-hexaenoic acid]
elasticity of DSPC membranes ([1]; 0.1 mol % VLC-PUFA in DSPC membranes): high elasticity
shift of π-A isotherm / mean molecular area (MMA) of the lipids ([1]; 0.1 mol %, 1 mol % and 10 mol % VLC-PUFA in DSPC monolayer, PBS pH 7.4 subphase, 22° C.): shifted the π-A isotherm to higher MMAs
increase of the DSPC flip-flop rate [2]: 4 fold
32:6 n-3 level in RPE ([3]; 4-8 hr after gavage): significant increase
32:6 n-3 level in retina ([3]; 4-8 hr after gavage): significant increase
time until serum VLC-PUFAs became detectable ([3]; serum): ≤ 2 h
serum VLC-PUFA concentration course after the first detection ([3]; serum, over the next 24 hr): reached a lower steady-state concentration
VLC-PUFAs in brain ([3]; throughout the 24 hr-period): undetectable
VLC-PUFAs in liver ([3]; throughout the 24 hr-period): undetectable
VLC-PUFAs in red blood cell (RBC) membranes ([3]; throughout the 24 hr-period): undetectable
RBC VLC-PUFAs [4, 5]: significant increase
serum VLC-PUFAs [4, 5]: significant increase
VLC-PUFAs in brain ([4]; 1 and 2 mg/day, mice): no VLC-PUFAs were detectable
VLC-PUFAs in liver ([4]; 1 and 2 mg/day, mice): detectable levels of VLC-PUFAs only in the 2 mg/day group
increase of VLC-PUFA levels in RPE [4, 6]: 7 fold
increase of VLC-PUFA levels in retina [4, 6]: 2 fold
toxic symptoms or behavioral changes ([4]; treatment groups compared to the control group, mice): toxic symptoms or behavioral changes were observed
contrast sensitivity (rod function) (WT mice (C57BL/6J)): improved significantly
visual acuity (cone function) (WT mice (C57BL/6J)): improved significantly

Source: US20230226002A1, “RETINAL BIOA[…] SYNTHETIC VERY-LONG-CHAIN POLYUNSATURATED FATTY ACIDS” (University of Utah Research Foundation, priority 2020, published 2023)
